Experimental data: patent US20260061000A1, “COMPOSITIONS AND METHODS FOR THE TREATMENT OF CARDIAC ARRHYTHMIAS, INCLUDING ATRIAL FIBRILLATION” (Lankenau Institute for Medical Research, priority 2022, published 2026)
Where “and” joins values, the source holds several entries; their conditions need not be identical. Equal values may be shown once. Entries after “also recorded” stand apart in the source; their conditions may differ.

What was measured:
[1] = system: ventricles; test: Electrophysiological parameters (APD, ERP, DTE) in ventricles of isolated arterially-perfused canine preparations; conditions: CL 500 ms
Procedure: (§1) Experiments were performed using isolated arterially-perfused canine preparations perfused with Tyrode's solution containing (in mM): NaCl 129, KCl 4, NaH2PO4 0.9, NaHCO3 20, CaCl2 1.8, MgSO4 0.5, glucose 5.5, insulin lunit/liter, bubelled with 95% O2 and 5% CO2. pH=7.4. Preparations consisting of the right atrium with a rim of right ventricle (1.0-2.0 cm) were isolated from the canine hearts (FIG. 1). The ostium of the right coronary artery was cannulated with polyethylene tubing, and the preparations were perfused with cold Tyrode's solution (8°-12° C.) containing 8.5 [K^+]0. With continuous coronary perfusion, all ventricular branches of the right coronary artery were immediately clamped with metal clips (1.5×10 mm; Kent Scientific Corp., Torrington, CT). The total time from excision of the heart to cannulation and perfusion of the artery was 4 minutes. […] coronary branches were ligated using silk thread. The preparations were placed in a temperature-controlled bath (8×6×4 cm) and perfused at a rate of 10-15 mL/min using Tyrode's solution. The temperature was maintained at 37° C.±0.5° C. (PolyStat; Cole Parmer Instrument, IL). The perfusate was delivered to the artery by a roller pump (MasterFlex L/S, Cole Parmer Instrument). An air trap was used to avoid bubbles in the perfusion line.
(§2) Transmembrane action potential (AP) recordings (sampling rate 41 kHz) were obtained from the right atrium and ventricle using floating glass microelectrodes (10-25 MΩ DC resistance). Glass microelectrodes were connected to a high-input impedance intracellular amplifier (Electro-705; World Precision Instruments, Sarasota, FL). A pseudo-electrocardiogram (ECG) was recorded using two electrodes consisting of Ag/AgCl half cells placed in the Tyrode's solution bathing the preparation, 1.0 to 1.2 cm from opposite ends of the atrial coronary-perfused preparations (FIG. 1). The signals were amplified, digitized, and analyzed (Cambridge Electronic Design, Cambridge, England). Effective refractory period (ERP) was measured by delivering premature stimuli after every 10th basic beat at a pacing cycle length (CL) of 500 ms. The diastolic threshold of excitation (DTE) was determined by increasing stimulus intensity in 0.01 mA steps starting from 0.1 mA, until a steady 1:1 activation was achieved. Post-repolarization refractoriness (PRR) was recognized when ERP exceeded an action potential duration at 90% repolarization (APD90) in the ventricle and action potential duration at 70% repolarization (APD70) in atria. Ventricular ERP coincides with APD90, whereas atrial ERP generally coincides with APD70.^4 The electrophysiological measurements were performed following at least 20 min of perfusion with flecainide and 5 min with elevated potassium concentrations. The electrophysiological measurements were obtained at a CL of 500 ms.

[2] = system: ACh-mediated AF; conditions: elevation of [K+]0 from 4 to 6-8 mM; isolated pig atria; cited from earlier work
[3] = system: acetylcholine-mediated AF; test: Electrical re-induction of AF after AF termination in isolated canine right atrial preparations
Procedure: A well-established acetylcholine (ACh)-mediated non-self-terminating (persistent) AF experimental model was used in the current study.^4 AF was induced by either delivering a single premature stimulus or by rapid pacing (CLs=40-80 ms, for 2-5 seconds). The efficacy and time course for flecainide to cardiovert AF (induced at 4 mM potassium) was studied at 4 mM (baseline) and at 5, 6, and 8 mM of potassium concentration ([K^+]0). Sustained AF (here defined as lasting >1 hour) was induced in 100% experiments in the presence of 4 mM [K^+]. 5-7 minutes after non-self-terminating AF was first introduced at 4 mM [K^+]0, flecainide was added to the Tyrode's perfusate containing either 4 mM [K^+]0 or with a concomitant increase in potassium concentration (to 5, 6, or 8 mM). Additionally, the capability of elevated potassium (5, 6, and 8 mM) alone to terminate AF was investigated. In these experiments, sustained AF was first induced at 4 mM [K^+]0 and 5-7 minutes later potassium concentrations were increased (to 5, 6, or 8 mM). To mimic hypokalemia, AF termination efficacy of flecainide was tested at 3 mM [K^+]0. If AF was not terminated by the tested conditions in 45 minutes, the AF was considered as “non-terminating”. In the experiments in which AF was cardioverted by tested conditions tested, electrical re-induction of AF was attempted within 1-5 minutes after AF termination (≥5 attempts in ≥2 atrial locations).

[4] = system: atria; test: Electrophysiological parameters (APD, ERP, PRR, DTE) in atria of isolated arterially-perfused canine preparations
Procedure: as §1, §2

[5] = system: acetylcholine-mediated AF; test: AF cardioversion in canine acetylcholine-mediated AF model (isolated coronary-perfused right atrial preparations); conditions: for AF cardioversion (atria cardioverted / tested): flecainide 1.5 μM
Procedure: This investigation conforms with the Guide for Care and Use of Laboratory Animals. Hearts from purpose-bred adult male Beagle dogs (10-16 kg, 10-19 months old) were obtained from Envigo (Denver, PA). Dogs were sedated with ketamine (10 mg/kg, intramuscularly [IM]) and xylazine (2 mg/kg, IM). Prior to euthanasia with Euthasol solution (pentobarbital sodium and phenytoin sodium; 0.22 ml/kg, intravenously [IV]), heparin (human pharmaceutical grade, 1,000 U/kg, IV) was administered. The heart was then isolated via a left thoracotomy. Retrograde aortic perfusion of the hearts with ice-cold cardioplegic solution (modified Krebs-Henseleit solution [K-H]; 16 mM KCl) was immediately performed to clear the coronary vasculature of blood. The hearts were then placed in a sealed container containing ice-cold cardioplegic solution and transported to our institution via a private courier in an insulated package surrounded by icepacks.
as §1
A well-established acetylcholine (ACh)-mediated non-self-terminating (persistent) AF experimental model was used in the current study.^4 AF was induced by either delivering a single premature stimulus or by rapid pacing (CLs=40-80 ms, for 2-5 seconds). The efficacy and time course for flecainide to cardiovert AF (induced at 4 mM potassium) was studied at 4 mM (baseline) and at 5, 6, and 8 mM of potassium concentration ([K^+]0). Sustained AF (here defined as lasting >1 hour) was induced in 100% experiments in the presence of 4 mM [K^+]. 5-7 minutes after non-self-terminating AF was first introduced at 4 mM [K^+]0, flecainide was added to the Tyrode's perfusate containing either 4 mM [K^+]0 or with a concomitant increase in potassium concentration (to 5, 6, or 8 mM).
Additionally, the capability of elevated potassium (5, 6, and 8 mM) alone to terminate AF was investigated. In these experiments, sustained AF was first induced at 4 mM [K^+]0 and 5-7 minutes later potassium concentrations were increased (to 5, 6, or 8 mM). To mimic hypokalemia, AF termination efficacy of flecainide was tested at 3 mM [K^+]0. If AF was not terminated by the tested conditions in 45 minutes, the AF was considered as “non-terminating”. In the experiments in which AF was cardioverted by tested conditions tested, electrical re-induction of AF was attempted within 1-5 minutes after AF termination (≥5 attempts in ≥2 atrial locations).
Overall, 41 right atrioventricular preparations isolated from 41 canine hearts were used in the study, with 46 experiments investigating AF cardioversion and 11 experiments investigating electrophysiological parameters in atria and ventricles. […]

[6] = system: recent-onset AF; conditions: flecainide via oral inhalation; patients with recent-onset AF; cited from earlier work
[7] = [K+]0 from 4 to 6 mM, CL 500 ms
[8] = after cardioversion by flecainide and elevated [K+]0 (5-8 mM)
[9] = after cardioversion by flecainide at [K+]0 4 mM
[10] = flecainide 1.5 μM added at [K+]0 6 mM, CL 500 ms
[11] = flecainide at [K+]0 4 mM, CL 500 ms

Compound: [K+] [[K^+]0]
- DTE in ventricles ([1]; 6 mM [K+]0 vs 4 mM): not significantly affected
- APD in ventricles ([1]; [K+]0 from 4 to 6 mM): significantly abbreviated
- ERP in ventricles ([1]; [K+]0 from 4 to 6 mM): significantly abbreviated
- AF cardioversion (atria cardioverted / tested) [2]: 3/4
- Duration of re-induced AF ([3]; 6 mM [K+]0 alone, in one of two experiments): 20 min
- AF inducible after termination (atria) ([3]; 8 mM [K+]0 alone): 4/4
- Duration of re-induced AF episodes ([3]; 8 mM [K+]0 alone): ≤ 26 s
- AF/AT inducibility after termination ([3]; two experiments in which 6 mM [K+]0 alone terminated AF): readily inducible in both
- DTE in atria ([4]; 6 mM [K+]0 vs 4 mM, CL 500 ms): not significantly affected
- APD in atria [4, 7]: abbreviated
- ERP in atria [4, 7]: significantly prolonging
- Post-repolarization refractoriness (PRR) [4, 7]: atrial-selective induction
- AF terminated, % of experiments / atria ([5]; no flecainide, [K+]0 from 4 to 8 mM): 100%
- AF termination (atria terminated / tested) ([5]; no flecainide, [K+]0 increased from 4 to 5 mM): did not terminate and 0/5 and did not cardiovert
- AF termination (atria terminated / tested) ([5]; no flecainide, [K+]0 increased from 4 to 6 mM): 2/6
- AF termination (atria terminated / tested) ([5]; no flecainide, [K+]0 increased from 4 to 8 mM): 4/4

Compound: O=C(NCC1CCCCN1)c1cc(OCC(F)(F)F)ccc1OCC(F)(F)F (stereo not shown) [flecainide]
- Patients restored to sinus rhythm [6]: approximately 50%
- ERP in ventricle ([1]; flecainide 1.5 μM added at [K+]0 6 mM): prolongation
- APD in ventricles ([1]; flecainide at [K+]0 4 mM): no significant change
- AF/AT inducibility after cardioversion [3, 8]: either not inducible or induced for a very brief episode; also recorded: either not inducible or induced for very brief episodes
- Duration of re-induced AF/AT episodes [3, 8]: < 100 s
- Duration of re-induced AF/AT episodes, in most cases ([3]; after cardioversion by flecainide and elevated [K+]0 (5-8 mM), in most cases): < 10 s
- AF or atrial tachycardia inducible after cardioversion (preparations) [3, 9]: 3/3
- Duration of re-induced AF/AT episodes [3, 9]: ≤ 300 s
- Duration of re-induced AF episodes ([3]; flecainide at 3 mM [K+]0 (hypokalemia)): ≤ 1860 s
- AF re-induction after termination ([3]; flecainide at 3 mM [K+]0 (hypokalemia), the only atria terminated): readily re-induced
- Depression of excitability, atria vs ventricles ([4]; combined flecainide and elevated [K+]0 (6 mM)): atrial predominant depression of excitability; also recorded: atrial preferential depression of excitability
- ERP in atria [4, 10]: much more pronounced in the atria
- Post-repolarization refractoriness (PRR) [4, 10]: atrial predominant development
- DTE ([4]; flecainide alone at [K+]0 4 mM, CL 500 ms): moderate atrial predominant increase
- APD in atria [4, 11]: no significant change
- ERP in atria [4, 11]: substantial lengthening
- DTE ([4]; flecainide in the presence of 6 mM [K+]0, CL 500 ms): large atrial-selective increase
- AF cardioversion (atria cardioverted / tested) ([5]; [K+]0 3 mM (simulated hypokalemia)): 1/6
- AF cardioversion (atria cardioverted / tested) ([5]; [K+]0 4 mM, ACh 0.5 μM): moderately effective
- AF cardioversion (atria cardioverted / tested) ([5]; [K+]0 4 mM, ACh 0.5 μM, listed as Flecainide): 3/6
- AF cardioversion (atria cardioverted / tested) ([5]; [K+]0 elevated to 5 mM): highly effective
- AF cardioversion (atria cardioverted / tested) ([5]; [K+]0 elevated to 5 mM, listed as Flecainide): 5/5
- AF cardioversion (atria cardioverted / tested) ([5]; [K+]0 elevated to 6 mM): highly effective
- AF cardioversion (atria cardioverted / tested) ([5]; [K+]0 elevated to 6 mM, listed as Flecainide): 5/5
- AF cardioversion (atria cardioverted / tested) ([5]; [K+]0 elevated to 8 mM): highly effective
- AF cardioversion (atria cardioverted / tested) ([5]; [K+]0 elevated to 8 mM, listed as Flecainide): 4/4
- Time to conversion (time course of flecainide-mediated AF termination) ([5]; flecainide, elevation of [K+]0 from 4 to 8 mM vs 4 mM): abbreviated
